Results from patent US8735363B2, “Preparation and application of heparin silver” (priority 2005, dated 2014).

Tests used:
[1] = test system: hyperplastic scar wound surface; experiment: Animal model of hyperplastic scar (excised whole-thickness skin wound); format: in vivo, New-Zealand rabbit
Method: The scar tissue was subjected to Masson staining and observed under light microscope, and the thickness of dermis (Da) of wound surface after epithelization and the thickness of dermis (Db) of adjacent normal tissue were measured.

[2] = test system: deep second degree scald wound surface; experiment: Animal model of burn (deep second degree steam scald); format: in vivo, Rats
Method: After rats were wounded, samples were taken at intervals of time. The wet weight of wound surface tissue (Ga) and the tissue dry weight (Gb) after baking at 80° C. for 72 hours were measured by weighting method. The water content of wound surface was calculated as W=(Ga−Gb)/Ga×100%, wherein W represented the degree of edema.

For heparin silver, the “Scar index, 60 days” value ([1]; 60 days, scar index = (Da−Db)/Db, dermis thickness, Masson staining) was 2.06 ± 0.83 (n = 6), the “Scar index, 180 days” value ([1]; 180 days, scar index = (Da−Db)/Db, dermis thickness, Masson staining) was 1.85 ± 0.52 (n = 6) and the “Healing time of wound surface (days)” value ([1]; rabbit 2 cm×5 cm excision wound, dressing with powder changed once per week, healed = scab less than 5% of wound area) was 21.4 ± 2.16 (n = 6) days. For the same substance, the “Water content of wound surface (W)” value ([2]; 8 h after wounding, W=(Ga−Gb)/Ga×100%, degree of edema) was 80.25 ± 2.78 (n = 6) %, the “Water content of wound surface (W)” value ([2]; 24 h after wounding) was 70.82 ± 3.56 (n = 6) % and the “Hydroxyproline content of wound surface” value ([2]; 1 d after wounding, chloramine T oxidization method) was 18.55 ± 2.13 (n = 5) ug/mL. For the same substance, the “Hydroxyproline content of wound surface” value ([2]; 2 d after wounding) was 20.45 ± 2.12 (n = 5) ug/mL, the “Water content of wound surface (W)” value ([2]; 48 h after wounding) was 70.16 ± 2.64 (n = 6) % and the “Hydroxyproline content of wound surface” value ([2]; 3 d after wounding) was 22.04 ± 1.35 (n = 5) ug/mL. The “Water content of wound surface (W)” value ([2]; 72 h after wounding) was 68.44 ± 1.32 (n = 5) %, the “Hydroxyproline content of wound surface” value ([2]; 5 d after wounding) was 23.27 ± 2.11 (n = 6) ug/mL and the “Water content of wound surface (W)” value ([2]; 5 d after wounding) was 67.61 ± 2.85 (n = 5) %. For the same substance, the “Hydroxyproline content of wound surface” value ([2]; 7 d after wounding) was 23.96 ± 2.54 (n = 6) ug/mL, the “Water content of wound surface (W)” value ([2]; 7 d after wounding) was 67.52 ± 1.36 (n = 5) % and the “Hydroxyproline content of wound surface” value ([2]; 10 d after wounding) was 26.87 ± 2.36 (n = 6) ug/mL. For the same substance, the “Hydroxyproline content of wound surface” value ([2]; 14 d after wounding) was 26.91 ± 2.14 (n = 6) ug/mL, the “Hydroxyproline content of wound surface” value ([2]; 21 d after wounding) was 24.05 ± 1.74 (n = 7) ug/mL and the “Healing Time (d)” value ([2]; rat 20% area deep second degree scald, powder dressing 0.5-1 mm changed once per day) was 21.5 ± 2.2 (n = 8) d. The “effect in the treatment of burns and/or scalds (animal test)” value ([2]; summary statement) was “accelerating healing speed, reducing occurrence of infection and inflammation, and improving healing quality of wound surface”.
